Each structure is given as a SMILES string. The source made the active and inactive calls. No cut-off for these calls is given here.

The test system of the assay is P388. In words: Cytotoxicity against mouse P388 cells after 48 hrs. The class given is functional, cell-based.

With `COc1cc2cc(c1Cl)N(C)C(=O)C[C@H](OC(=O)C(C)N(C)C(=O)C(C)C)[C@]1(C)O[C@H]1[C@H](C)[C@@H]1C[C@@](O)(NC(=O)O1)[C@H](OC)/C=C/C=C(\C)C2OC` (some centres undefined), the result was Active.
In the case of `COc1cc2cc(c1Cl)N(C)C(=O)C[C@H](OC(=O)C(C)C)[C@]1(C)O[C@H]1[C@H](C)[C@@H]1C[C@@](O)(NC(=O)O1)[C@H](OC)/C=C/C=C(\C)C2`, the outcome was Active.
The same measure for `COc1cc2cc(c1Cl)N(C)C(=O)C[C@H](OC(=O)C(C)N(C)C(=O)C(C)C)[C@]1(C)O[C@H]1[C@H](C)[C@@H]1C[C@@](O)(NC(=O)O1)[C@H](OC)/C=C/C=C(\C)C2` (some centres undefined): “Active”; for `COc1cc2cc(c1Cl)N(C)C(=O)C[C@H](OC(=O)C(C)C)[C@]1(C)O[C@H]1[C@H](C)[C@@H]1C[C@@](O)(NC(=O)O1)[C@H](OC)/C=C/C=C(\C)C2OC` (some centres undefined): “Active”.

(Values after ChEMBL document CHEMBL1151105, “Antitumor principles in mosses: the first isolation and identification of maytansinoids, including a novel 15-methoxyansamitocin P-3” (J Nat Prod, 1988).)
